# Experiments:
# GST Yb (μ class) = assay: Western blot of GST Yb (μ-type) expression in H4IIE cells; type: cell-based, rat; details: for GST Yb (μ) induction: H4IIE cells
# Method: Western Blot Analysis Glutathione S-transferase Expression. Cultured H4IIE rat hepatoma cells were treated with test agent with various concentrations or various time points. […] Cells were harvested using SDS lysis buffer (20 mM Tris-Cl, pH 6.8, containing 0.4% SDS (w/v), 4% glycerol, 0.24 M β-mercaptoethanol, and 0.5% bromphenol) and the lysates were boiled for 5 minutes, then stored at -20° C. An aliquot of lysate was used for protein determination using a bicichoninic acid protein assay kit with BSA as a standard. Equivalent amounts of protein were electrophoresed by SDS-PAGE on precast 12.5% Tris-glycine acrylamide gels (Novex, San Diego, Calif.), then transferred to polyvinylidene difluoride (PDVF) membranes. Nonspecific binding sites were blocked with 10% nonfat dry milk and blotting was performed with goat polyclonal antirat GSTYa (α class) IgG or antirat, GSTYb (μ class) IgG and analyzed by alkaline phosphatase-conjugated antigoat IgG secondary antibody (Oxford Biomed Research, Inc.) and quantified using an AP 20 Alkaline Phosphatase Kit detection system (Oxford Biomed Research, Inc.).
# Induction of Expression of Glutathione S-transferase Ya (α-type) and Yb (μ-type) in Cell Cultures. […] To date, the superfamily of mammalian cytosolic GST isozymes has been defined genetically to consist of four classes; α, μ, π, and θ, which differ in tissue-specificexpression and distribution, as well as substrate specificity. […] Cultured H4IIE cells were treated either with 10 μM of 4'-BF (FIG. 7B) or sulforaphane for 0, 2, 4, 8, 16, 24, and 48 hours for a time-dependent study, or with 0.16, 0.8, 4, 10, 20, and 50 μM of 4'-BF (FIG. 7A) or sulforaphane for 24 hr for a dose-dependent study (FIG. 7A). The expressions of two major detoxification isoforms of GSTs (GST Ya: α-type, and GST Yb: μ-type) mediated by 4'-BF or sulforaphane were investigated in H4EII rat hepatoma cells using Western blotting technique.
# [1] = tested on: pDTD-1097CAT construct (QR gene 5'-region), HepG2 cells; assay: CAT expression in HepG2 cells transfected with pDTD-1097CAT; type: cell-based, human cells; rat QR gene; details: 10 μM, 48 h; p<0.0001
# Method: Transcient Transfection Gene Expression Assay. Cultured HepG2 human hepatoma cells were transfected with three plasmid constructs (PDTD-1697CAT, XRE-CAT, ARE-CAT) containing various portions of the 5'-region of the QR gene fused to the CAT gene using the calcium phosphate precipitation method (J. Sambrook et al., Molecular cloning: A Laboratory Handbook, Ed. Chris Nolan, CHS Laboratory Press, 1989). After 4 hours of transfection, the cells were treated with 10% glycerol for 3 minutes and rinsed with PBS and switched to MEM, containing 100 units/ml penicillin G sodium, 100 units/ml streptomycin sulfate, nonessential amino acids, and 1 mM sodium pyruvate (Life Technologies Inc.) supplemented with 10% fetal bovine serum for 12-16 hours recovery. Then, test agents were added to the cells. After 48 hours of treatment with the test agents, cells were harvested with lysis buffer (Boehringer Mannheim Biochemical) and CAT protein expressions were assessed using a CAT ELISA kit (Boehringer Mannheim Biochemical). […] All data were expressed as mean +/- SD. […]
# In particular, FIG. 1 illustrates quantitation of CAT expression in HepG2 cells transfected with QR-CAT constructs. […] CAT expression (ng CAT/mg protein) was determined using a CAT ELISA, and the ratio of CAT expression between treated and control cells was calculated (ratio=treated/control).
# cytochrome P4501A1 = assay: Inhibition of TCDD-induced EROD activity; type: biochemical
smiles,measurement,setting,value
O=c1cc(-c2ccc(Br)cc2)oc2ccccc12 [4'-Bromoflavone],"maximum induction time, GST Yb","GST Yb (μ class); 10 μM, 0-48 h",16 to 24 h
same,"maximum induction concentration, GST Yb","GST Yb (μ class); 0.16-50 μM, 24 h",10 to 20 µM
same,GST Yb (μ) induction,GST Yb (μ class),effectively induced
same,GST Yb (μ) induction,GST Yb (μ class); listed as 4'-BF,"induced by 4'-BF in a time, dose-dependent manner"
same,"CAT expression, pDTD-1097CAT",[1],significantly (p<0.0001) induced
same,inhibition of TCDD-induced EROD activity,cytochrome P4501A1,significantly inhibit
